The text below walks through data of ChEMBL document CHEMBL1201862, “PubChem BioAssay data set” (2004).

Assay [1] is described as follows: A549 cell cytotoxicity, dose response, cytotoxicity control, plate reader, dry powder, set 6 (AID 743312). Type of assay: functional, cell-based.
Assay [2] in a line: HepG2 cell cytotoxicity, dose response, cytotoxicity control, plate reader, dry powder, set 6 (AID 743311). Type of assay: functional, cell-based.
Assay [3] deals with Vasopressin V1b receptor (Homo sapiens, UniProt P47901). The assay can be described thus: Late-stage results from the probe development effort to identify antagonists of arginine vasopressin receptor 1a (AVPR1a): fluorescence-based cell-based dose response AVPR1b inhibition counterscreen assay. Type of assay: functional. Background: The purpose of a counterscreen is to sort out artefacts and off-target activity.
Sequence of Vasopressin V1b receptor (P47901 whole entry): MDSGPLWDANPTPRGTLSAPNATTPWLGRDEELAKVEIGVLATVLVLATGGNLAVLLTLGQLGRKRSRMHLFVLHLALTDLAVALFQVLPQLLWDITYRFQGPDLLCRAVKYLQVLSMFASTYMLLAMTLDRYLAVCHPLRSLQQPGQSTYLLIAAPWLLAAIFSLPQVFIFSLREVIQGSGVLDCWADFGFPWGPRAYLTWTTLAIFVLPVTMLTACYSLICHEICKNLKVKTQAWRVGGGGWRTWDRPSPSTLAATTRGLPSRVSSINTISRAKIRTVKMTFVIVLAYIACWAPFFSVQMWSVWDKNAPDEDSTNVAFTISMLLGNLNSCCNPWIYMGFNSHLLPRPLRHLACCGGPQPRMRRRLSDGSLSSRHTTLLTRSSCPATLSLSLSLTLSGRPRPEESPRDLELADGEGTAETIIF

The nature of assay [4]: Late-stage results from the probe development effort to identify antagonists of arginine vasopressin receptor 1a (AVPR1a): fluorescence-based cell-based dose response OXTR inhibition counterscreen assay. Type of assay: functional.
The target of assay [5] is Vasopressin V2 receptor (Homo sapiens, UniProt P30518). The assay can be described thus: Late-stage results from the probe development effort to identify antagonists of arginine vasopressin receptor 1a (AVPR1a): fluorescence-based cell-based dose response AVPR2 inhibition counterscreen assay. The format is functional.
Sequence of Vasopressin V2 receptor (P30518 whole entry): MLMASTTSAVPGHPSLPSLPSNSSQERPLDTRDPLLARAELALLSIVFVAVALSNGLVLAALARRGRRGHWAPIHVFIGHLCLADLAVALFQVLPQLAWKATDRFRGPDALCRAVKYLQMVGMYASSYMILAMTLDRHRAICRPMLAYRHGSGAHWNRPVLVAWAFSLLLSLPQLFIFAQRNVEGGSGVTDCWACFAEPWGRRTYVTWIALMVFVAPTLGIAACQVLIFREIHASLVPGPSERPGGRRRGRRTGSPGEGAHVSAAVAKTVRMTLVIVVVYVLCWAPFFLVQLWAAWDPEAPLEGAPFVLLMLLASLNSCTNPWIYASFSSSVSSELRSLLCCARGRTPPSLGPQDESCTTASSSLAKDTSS
Assay [6] can be described thus: Late-stage results from the probe development effort to identify antagonists of arginine vasopressin receptor 1a (AVPR1a): fluorescence-based cell-based dose response AVPR1a inhibition assay. The format is functional.
Assay [7] is described as follows: inhibitors of PGC1a acetylation in cells, dose response, cell-based, cherry-picked samples (AID 720514).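 Further: potency may reflect raised or lowered acetylation signal.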 Type of assay: functional.
Assay [8] can be described thus: P. falciparum Dd2 growth inhibitors, dose response, SYBR Green, dry powder samples, set 9 (AID 1159568). The format is functional, cell-based.
A short description of assay [9]: HCT116 cell viability decrease, GSK3B pretreatment – CellTiter-Glo, IC50, dose response (AID 1117339). The format is functional. Particulars: HCT-116.
A short description of assay [10]: Concentration-dependent survival of SW480 colon cancer line, luminescence detection with CellTiter-Glo, half-maximal inhibitory concentration (AID 1117338). Type of assay: functional. On the technique in general: In ATP-based viability assays light output follows the ATP content of the culture.
The nature of assay [11]: SNU-C1 cell viability reduction, dose response, CellTiter-Glo luminescence (AID 1117323). Type of assay: functional, cell-based.
The nature of assay [12]: cytotoxicity toward Colo320 cells – cell-based, CellTiter-Glo luminescence, IC50, dose response (AID 1117334). Type of assay: functional. The conditions noted are these: COLO 320.
Assay [13] is described as follows: RKO cell viability reduction, dose response, CellTiter-Glo luminescence (AID 1117322). Type of assay: functional.
Assay [14] in a line: CellTiter-Glo luminescent dose response of DLD-1 viability loss (AID 1117352). Type of assay: functional.
A short description of assay [15]: cytotoxicity toward HCT116 cells – cell-based, CellTiter-Glo luminescence, IC50, dose response (AID 1117332). The format is functional. The conditions noted are these: HCT-116.
A short description of assay [16]: cytotoxicity toward HT-29 cells – cell-based, CellTiter-Glo luminescence, IC50, dose response (AID 1117330). The format is functional.
Assay [17] has as its target Phospholipase D2 (Homo sapiens, UniProt O14939). The assay can be described thus: PLD2 Cellular Concentration Response Study. Type of assay: functional.
For assay [18], the target named is Phospholipase D1 (Homo sapiens, UniProt Q13393). The assay can be described thus: PLD1 Cellular Concentration Response Study. Type of assay: functional.
Sequence of Phospholipase D1 (Q13393 whole entry): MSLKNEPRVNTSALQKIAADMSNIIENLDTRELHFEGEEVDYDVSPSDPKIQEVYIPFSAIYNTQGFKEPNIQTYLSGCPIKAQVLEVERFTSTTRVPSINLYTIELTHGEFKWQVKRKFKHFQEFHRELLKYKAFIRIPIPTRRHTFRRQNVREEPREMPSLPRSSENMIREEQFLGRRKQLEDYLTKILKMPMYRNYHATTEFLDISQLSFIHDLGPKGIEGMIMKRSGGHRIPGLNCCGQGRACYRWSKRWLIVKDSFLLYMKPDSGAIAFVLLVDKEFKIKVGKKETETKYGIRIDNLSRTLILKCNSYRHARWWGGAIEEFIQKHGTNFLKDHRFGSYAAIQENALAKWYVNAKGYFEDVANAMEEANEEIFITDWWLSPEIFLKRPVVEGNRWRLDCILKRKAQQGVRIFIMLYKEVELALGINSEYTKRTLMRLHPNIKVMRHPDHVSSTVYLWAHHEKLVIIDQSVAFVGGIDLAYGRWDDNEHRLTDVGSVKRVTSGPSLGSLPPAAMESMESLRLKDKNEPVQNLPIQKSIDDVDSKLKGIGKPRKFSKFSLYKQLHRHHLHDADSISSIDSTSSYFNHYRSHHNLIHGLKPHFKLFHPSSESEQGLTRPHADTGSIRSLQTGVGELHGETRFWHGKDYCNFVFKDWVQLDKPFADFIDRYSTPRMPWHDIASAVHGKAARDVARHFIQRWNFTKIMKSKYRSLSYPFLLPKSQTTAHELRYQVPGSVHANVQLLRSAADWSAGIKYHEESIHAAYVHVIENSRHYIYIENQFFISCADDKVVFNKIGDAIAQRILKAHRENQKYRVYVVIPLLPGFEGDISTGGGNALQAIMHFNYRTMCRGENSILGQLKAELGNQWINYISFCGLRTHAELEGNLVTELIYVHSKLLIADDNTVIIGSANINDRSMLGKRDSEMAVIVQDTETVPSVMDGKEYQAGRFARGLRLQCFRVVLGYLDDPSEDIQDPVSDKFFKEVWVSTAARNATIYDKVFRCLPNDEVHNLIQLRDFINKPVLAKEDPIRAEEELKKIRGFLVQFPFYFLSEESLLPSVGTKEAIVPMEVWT
Assay [19] in a line: cells.
Assay [20] deals with T1, Oxysterols receptor LXR-beta (Homo sapiens, UniProt P55055).
T1 sequence (P55055 whole entry): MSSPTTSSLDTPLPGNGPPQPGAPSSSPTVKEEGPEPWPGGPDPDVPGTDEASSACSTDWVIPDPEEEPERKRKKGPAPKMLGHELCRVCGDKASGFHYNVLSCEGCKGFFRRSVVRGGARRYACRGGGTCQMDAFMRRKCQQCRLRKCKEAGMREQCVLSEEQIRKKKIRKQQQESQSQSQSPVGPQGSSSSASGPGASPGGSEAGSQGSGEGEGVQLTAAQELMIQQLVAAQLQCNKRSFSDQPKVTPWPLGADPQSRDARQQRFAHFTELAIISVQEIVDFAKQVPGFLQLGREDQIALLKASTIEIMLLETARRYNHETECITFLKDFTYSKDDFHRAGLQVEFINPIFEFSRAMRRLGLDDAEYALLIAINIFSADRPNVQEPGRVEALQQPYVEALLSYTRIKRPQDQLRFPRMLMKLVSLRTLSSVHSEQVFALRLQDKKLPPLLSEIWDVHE
Type of assay: functional, cell-based.

The nature of assay [21]: ZM109 Env clade C HIV-1 fusion inhibitors, dose response, HeLa effector, CEM target cells, luciferase, cherry-pick (AID 652058). Type of assay: functional, cell-based.
The nature of assay [22]: inhibitors of HIV Env-driven cell fusion, dose response, cherry-pick (AID 652057). Type of assay: functional, cell-based.
Assay [23] is described as follows: off-target signal loss in HeLa-CEM21 co-culture – HeLa F-luc CTL cells, cherry-picked, counter-screen for HIV-1 Env fusion inhibitor project, dose response (AID 652040).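 Further: potency for signal decrease marking cytotoxic or nonspecific inhibition.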 The format is functional, cell-based.
Assay [24] can be described thus: inhibitors of clade B AD8 Env fusion, dose response, cell-based, cherry-pick (AID 652062).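 Further: luciferase signal from cell-cell fusion driven by HIV-1 clade B AD8 Env; potency is for inhibitors of fusion seen as a drop in luminescence.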 The format is functional.
Assay [25] is described as follows: CEM21 cell cytotoxicity, dose response, cytotoxicity control, plate reader, dry powder (AID 687026). The format is functional, cell-based.
Assay [26] is described as follows: CEM21 lymphoblast cell cytotoxicity, dose response, cytotoxicity control for viral fusion inhibitor project, CellTiter-Glo luminescence, cherry-picked (AID 652042).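 Further: potency for signal decrease meaning cytotoxicity.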 The format is functional, cell-based.
Assay [27] can be described thus: A Cell-Based Confirmatory Screen for Compounds that Inhibit VEEV, TC-83 (8). The format is functional.
Assay [28] in a line: A Cell-Based Confirmatory Screen for Compounds that Inhibit VEEV, TC-83 (7). Type of assay: functional.
Assay [29] in a line: A549 cell cytotoxicity, dose response, cytotoxicity control, 24 h, CellTiter-Glo luminescence, cherry-picks (AID 1053115). Type of assay: functional, cell-based. Particulars: A549, 24 h.

Activity calls are given as the source filed them. A value given as a limit tells only on which side of the number the result lay.

Sequence of Phospholipase D2 (O14939 whole entry): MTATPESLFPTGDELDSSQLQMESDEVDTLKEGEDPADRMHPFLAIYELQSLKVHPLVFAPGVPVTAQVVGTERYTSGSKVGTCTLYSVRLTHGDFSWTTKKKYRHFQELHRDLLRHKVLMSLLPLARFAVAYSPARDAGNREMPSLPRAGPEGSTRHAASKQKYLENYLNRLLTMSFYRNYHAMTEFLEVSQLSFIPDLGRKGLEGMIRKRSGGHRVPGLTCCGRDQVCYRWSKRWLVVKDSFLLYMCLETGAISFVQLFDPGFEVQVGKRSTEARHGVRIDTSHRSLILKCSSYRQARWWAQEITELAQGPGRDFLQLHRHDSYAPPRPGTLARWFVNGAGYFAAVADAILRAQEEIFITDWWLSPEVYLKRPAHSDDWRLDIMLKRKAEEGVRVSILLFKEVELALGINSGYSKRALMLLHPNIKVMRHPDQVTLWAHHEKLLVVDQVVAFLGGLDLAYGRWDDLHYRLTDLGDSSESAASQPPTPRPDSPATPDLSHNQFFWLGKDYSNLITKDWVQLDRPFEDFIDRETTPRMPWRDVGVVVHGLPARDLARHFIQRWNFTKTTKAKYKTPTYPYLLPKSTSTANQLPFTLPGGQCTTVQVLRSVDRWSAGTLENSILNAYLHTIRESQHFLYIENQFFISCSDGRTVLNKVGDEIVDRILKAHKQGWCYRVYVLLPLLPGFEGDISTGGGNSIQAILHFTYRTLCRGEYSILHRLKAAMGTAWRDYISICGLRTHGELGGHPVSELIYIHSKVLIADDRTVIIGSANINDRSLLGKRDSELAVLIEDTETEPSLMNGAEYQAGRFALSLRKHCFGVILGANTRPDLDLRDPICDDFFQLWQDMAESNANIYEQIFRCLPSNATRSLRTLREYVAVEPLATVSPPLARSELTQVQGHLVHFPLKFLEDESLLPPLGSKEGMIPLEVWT

With `Sc1nc2cccc(Cl)c2n1CCOc1ccccc1`, the AC50 (commonly the concentration at which the activity in the assay is half-maximal) was 20.9 µM (active) in assay [1] and > 52 µM (inactive) in assay [2].

Take `O=C(C1CCN(c2cc(C(F)(F)F)ccn2)CC1)N(CC1CC1)c1ccc(Cl)cc1`: the IC50 (as a rule, the concentration that inhibits the measured activity by half) in [3] is > 50 µM (inactive); in assay [4] it was > 50 µM (inactive); in [5], > 50 µM (inactive); in assay [6], 0.0367 µM (active).

In the case of `Fc1cccc(CN2C[C@@H]3N[C@H](C2)[C@@H]3c2ccc(/C=C/c3ccccc3)cc2)c1`, the figures for the half-maximal activity concentration (AC50) in assay [7] and in assay [8] were 13.4 µM (active) and 4.6 µM (active), respectively.

For `COC(=O)CCCCC(CCSS/C(CCO)=C(\C)N(C=O)Cc1cnc(C)nc1N)SC(C)=O` (centres undefined), the IC50 in assay [9], in assay [10], in [11], in assay [12], in [13] and in assay [14] was > 20 µM (inactive) each time. Also, the IC50 in assay [15] and in assay [16] was > 20 µM (inactive) throughout.

Turning to `COc1cccc(C(=O)N2CNC(=O)C23CCN(CCNC(=O)c2ccc4ccccc4c2)CC3)c1`, the IC50 in assay [17] was 2.05 µM (active); in assay [18], 19 µM (active).

Regarding `Cc1csc(N/N=C/c2ccccc2F)n1`, the EC50 in assay [19] and in assay [20] was > 67.6 µM (inactive) each time.

On to `CCCn1nc(C(=O)Nc2ccc3nc(N4CCOCC4)sc3c2)ccc1=O`, for which the AC50 was 1.04 µM (active) in [21]; 1.85 µM (active) in [22]; > 70 µM (inactive) in assay [23]; 10.3 µM (active) in assay [24]; > 70 µM (inactive) in assay [25]; 67.1 µM (active) in assay [26].

With `CN1CCN(C)/C(=N/c2ccc([N+](=O)[O-])cc2C(=O)Nc2ccccc2)C1`, the IC50 was < 0.073 µM (active) in assay [27] and < 0.04 µM (active) in assay [28].

`CN1c2ccc(-c3ccc(C#N)cc3)cc2[C@@H]2[C@@H](CCN2C(=O)C2CCCCC2)[C@H]1CO`: the AC50 in assay [29] was 47.5 µM (active).
